In one assay the test system is STAT5. As to the kind of experiment: EPO-induced phospho-STAT5 MFI in CD71+ primary MDS cells by flow cytometry. In kind it is cell-based, human. As for the experimental part: BM-MNC were serum deprived in IMDM and 0.4% BSA for 1 hour, then treated as described in FIG. 5. RHu-EPO stimulated cells were treated 5 U/ml×15 minutes at 37° C. Cells were fixed in BD Cytofix (Beckon Dickenson) ×10 minutes, washed in BD Stain Buffer then re-suspended in ice cold 90% methanol. After washing ×2, cells were stained with anti-pSTAT5-phycoerthryin (PE) conjugated antibody and CD71-allophycocyanin (APC) conjugated antibody [20 μg/10^6 cells]. Cells were washed ×2 with stain buffer before transfer to FACScan tubes and analysis on the FACScan flow cytometer. The gated CD71+ cell population accounted for 11.35% of BM-MNC. Results reflect phospho-STAT5:PE MFI in a representative patient specimen. Anti-pSTAT5, CD71-APC and CD34-APC antibodies were purchased from BD-Pharmingen.
To confirm that lenalidomide enhances STAT5 phosphorylation in erythroid precursors from primary BM specimens, BM specimens were evaluated from Low- or Intermediate-1 risk MDS by flow cytometry. As in the UT7 cell line, lenalidomide increased EPO-induced phosphorylation of STAT5 in CD71+ erythroid precursors, whereas lenalidomide alone had no effect on STAT5 phosphorylation [FIG. 3]. The STAT5 phosphorylation delta (PD), i.e., the increase in mean fluorescence intensity (MFI) for EPO-induced STAT5 phosphorylation with the addition of lenalidomide compared to EPO alone was 43.5 relative MFI units, representing a 24% increase in pSTAT5 MF.
A general note: A flow cytometer gives signals particle by particle.

The test system of assay [1] is lower risk MDS patients who have failed treatment with rhu-EPO. The settings on record: cited from earlier work.
Another assay addresses T1, rhu-CDC25C (Homo sapiens, UniProt P30307).
T1 construct: purchased BIOMOL
T1 sequence (P30307 1-473): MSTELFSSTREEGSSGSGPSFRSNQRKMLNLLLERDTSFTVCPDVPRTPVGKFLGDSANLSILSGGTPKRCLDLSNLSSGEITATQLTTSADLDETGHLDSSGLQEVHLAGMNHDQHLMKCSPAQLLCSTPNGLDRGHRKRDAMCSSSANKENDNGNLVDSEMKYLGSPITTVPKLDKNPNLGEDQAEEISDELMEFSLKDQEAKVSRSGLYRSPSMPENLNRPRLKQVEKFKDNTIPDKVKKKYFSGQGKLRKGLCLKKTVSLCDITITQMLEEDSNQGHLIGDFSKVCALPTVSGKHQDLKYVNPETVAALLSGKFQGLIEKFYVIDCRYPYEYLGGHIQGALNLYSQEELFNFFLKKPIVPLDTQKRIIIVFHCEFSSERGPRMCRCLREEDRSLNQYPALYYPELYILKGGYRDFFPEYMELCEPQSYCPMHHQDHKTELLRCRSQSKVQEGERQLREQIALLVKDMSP
Description: CDC25C phosphatase OMFP hydrolysis assay. Format: biochemical. As to the method:
200 U of rhu-CDC25C (BIOMOL) was incubated in assay buffer (100 mM Tris-HCL, pH 8.2, 40 mM NaCl, 1 mM DTT, 0.1% BSA, and 20% glycerol) for 1 hour at 37 C with the indicated inhibitors CC-5013, Thalidomide, and CDC25 Phosphatase Inhibitor, NSC, Calbiochem) at the concentrations indicated. The substrate OMFP (3-0-Methylfluorescein phosphate cyclohexylammonium salt, Sigma) was added at 500 μM and tubes were incubated for 60 minutes at 37° C. Samples were read on a spectrophotometer at 477 nm. Percent activity was calculated by subtracting background absorbance and dividing each sample by the CDC25C+control.
To determine if lenalidomide inhibits CDC25C phosphatase activity, rhu-CDC25C PTP inhibition by lenalidomide and thalidomide were compared to a CDC25C selective inhibitor using the 3-o-methylfluorescein phosphate (OMFP) hydrolysis assay [FIG. 10].

Another assay has as its system UT-7 cells. As to the kind of experiment: UT7 colony forming assay with or without EPO. In kind it is cell-based. As to the method:
FIGS. 1A and 1B show Lenalidomide potentiates clonogenic response to […]. […] Colonies were scored after 14 days incubation and the growth of bone marrow colony-forming unit granulocyte, erythroid, macrophage, megakaryocyte (CFU-GEMM); burst-forming unit-erythroid (BFU-E); and colony-forming unit granulocyte-macrophage (CFU-GM) assessed. […] Cells were then plated in methylcellulose+10% FBS, 2000 cells/well, with or without erythropoietin (EPO). Colonies were scored at day seven.
When UT7 cells were exposed to lenalidomide prior to culture initiation with EPO, supra-additive colony forming capacity was observed that exceeded growth induced by EPO and/or lenalidomide treatments [P=0.001].

The subject of another assay is U937 (non-del5q) cells. As to the kind of experiment: Apoptosis by Annexin-V/PI flow cytometry in U937 cells. Format: cell-based. The following applies: 24 hours, all concentrations. As for the experimental part: AML-EH5q (FIG. 8A) and U937 (FIG. 8B) cells were exposed to lenalidomide, thalidomide or vehicle at the concentrations indicated for 24 hours in IMDM and 20% FBS and apoptosis assessed by flow cytometry using Annexin-V/PI staining. Briefly, cells are incubated for 20 minutes at room temperature in 50 mM HEPES (pH 7.4) and 150 mM NaCl containing 2 mM calcium chloride with a mixture of 1 μg/mLAnnexin V-FITC (Boehringer Mannhein, Mannhein, Germany) and 2.5 μg/mL propidium iodide (PI; Sigma-Aldrich) before analysis.
The hematologic effects of lenalidomide could derive from dual effects that are karyotype-dependent, i.e., (1) the potentiation of erythropoiesis in non-del5q erythroid precursors, and (2) selective suppression of del5q clones. To confirm that lenalidomide is selectively cytotoxic to del-5q clones, an AML cell line transformed from an MDS patient with isolated 5q31 deletion was cultivated and the cell line successfully maintained in suspension culture with recombinant myeloid growth factor supplementation. This cell line [designated AML-EH5q] is an AML cell line that harbors the isolated 5q-deletion. […] To evaluate the selectivity of lenalidomide cytotoxic for del5q clones, apoptotic response to lenalidomide and thalidomide was compared in AML-EH5q and U937 (non-del5q) cells by flow cytometry. […] Viability was unaffected at all concentrations for both agents in U937 cells.

Take `Nc1cccc2c1CN(C1CCC(=O)NC1=O)C2=O` (stereo not drawn) [lenalidomide, 3-(4-amino-1-oxo-1,3-dihydro-2H-isoindol-2-yl)piperidine-2,6-dione]: the “EPO-induced phosphorylation of STAT5” value with STAT5 (CD71+ erythroid precursors, Low- or Intermediate-1 risk MDS BM) was “increased”. Besides, the STAT5 phosphorylation entry with STAT5 (CD71+ erythroid precursors, lenalidomide alone) is recorded as “no effect”. Moreover, the “STAT5 phosphorylation delta (PD): increase in MFI for EPO-induced STAT5 phosphorylation with lenalidomide compared to EPO alone” value in the assay on STAT5 (CD71+ primary MDS cells, representative patient specimen) came to 43.5 relative MFI units. In addition, the “increase in pSTAT5 MFI” value with STAT5 (EPO + lenalidomide compared to EPO alone, CD71+ cells) was 24%. Also, in assay [1] (del5q patients), the cytogenetic response is recorded as 74% and the transfusion-independence was 67%. In assay [1] (patients with chromosome 5q31 interstitial deletion (del5q)), the erythroid response is recorded as 76%. Further, the MER rate in assay [1] (patients with normal or alternate karyotypes) is listed as 25-30%. Besides, the “inhibition of CDC25C phosphatase activity” value against rhu-CDC25C was “potent and selective inhibitor”. The colony forming capacity result in the assay with UT-7 cells (UT7 cells exposed to lenalidomide prior to culture initiation with EPO, P=0.001) is recorded as “supra-additive”. Further, in the assay on UT-7 cells (lenalidomide 1 μM alone, UT7 cells), the colony forming capacity result is recorded as “minimal effect”. In the assay on U937 (non-del5q) cells, the viability / apoptosis result is “unaffected”.
